Experimental data reported in patent US20150182525A1, “4-Amino-5-Fluoro-3-[6-(4-Methylpiperazin-1-YL)-1H-Benzimidazol-2-YL]-1H-Quinolin-2-one for use in the Treatment of Adenoid Cystic Carcinoma” (priority 2011, published 2015).
“Also recorded” adds a separate entry of the source.

Legend:
[1] = tested on: Stage IV adenoid cystic carcinoma; assay: Dovitinib clinical trial, adenoid cystic carcinoma patient, radiologic imaging of target lesions; assay type: in vivo, human
Protocol: A patient with Stage IV adenoid cystic carcinoma was enrolled in a dovitinib clinical trial.
The patient was originally diagnosed 20 years ago with Stage II well differentiated ACC on the right cheek mucosa. Patient was previously treated using tumor resection of right cheek mucosa and right upper jaw and treated with radiation therapy, followed by chemotherapy with 5 FU (250 mg/m^2), ciplatin (40 mg/m^2), doxorubicin (20 or 27 mg/m^2) and cyclophosphamide (400 mg/m^2).
Recurrence of ACC occurred […], and patient was again treated using surgery of right cheek and submandibular Lymph nodes. Patient was subsequently treated with radiation therapy and followed by chemotherapy (TS-1, 120 mg/day).
Patient was enrolled into the dovitinib clinical trial and was treated with dovitinb 500 mg 5 days on 2 days off.

primary ACC xenografts = assay: Tumor growth inhibition in primary ACC xenograft models; assay type: in vivo, immunodeficient mice; settings: FIGS. 6 and 7
Protocol: Once confirmed, established ACC xenograft models were developed until growth characteristic stabilized at which point viable stocks were collected and banked. According to one embodiment, the efficacy of dovitinib was evaluated in inhibiting tumor growth in certain ACC xenografts.

[2] = tested on: ACCx6 xenograft tumor line; assay: ACCx6 adenoid cystic carcinoma xenograft efficacy study in nude mice; assay type: in vivo; settings: 50 mg/kg p.o. qd x28; D28; P<0.001 as compared to 5/10 mg/kg docetaxel monotherapy
Protocol: The tumors are maintained by engraftment in nude mice. A 1 mm^3 fragment is implanted subcutaneously in the right flank of each test animal The tumors are measured with calipers twice weekly, and daily as the mean volume approached 100-150 mm^3 Seven days after tumor cell implantation, on D1 (day 1) of the study, the animals are sorted into groups of ten mice, with individual tumor sizes of 100-1250 mm^3 Tumor size, in mm^3, is calculated from
where “w” is the width and “1” is the length, in mm, of the tumor. Tumor weight is estimated with the assumption that 1 mg is equivalent to 1 mm^3 of tumor volume. For the efficacy study dovitinib and its vehicle are each administered orally (p.o.), once daily for twenty eight consecutive days (qd x28). […] The dosing volume, 10 mL/kg (0.2 mL20 g mouse), is scaled to the weight of each animal as determined on the day of dosing, except on weekends when the previous BW was carried forward.
The study begins on Day 1 (D1). Efficacy is determined from tumor volume changes up to D28 (day 28). Efficacy is determined on D28.
For the purpose of statistical and graphical analyses, ΔTV, the difference in tumor volume between D1 (the start of dosing) and the endpoint day, was determined for each animal For each treatment group, the response on the endpoint day was calculated by the following relation: […]

[3] = tested on: ACCx5M1 xenograft tumor line; assay: ACCx5M1 adenoid cystic carcinoma xenograft tumor growth delay study in nude mice; assay type: in vivo
Text: The data set is comprised of the first observation that exceeded the study endpoint volume and the three consecutive observations that immediately preceded the attainment of the endpoint volume. The calculated TTE is usually less than the day on which an animal is euthanized for tumor size.

[4] = 500 mg 5 days on 2 days off, after 1 cycle of treatment (4 weeks), one patient

`CN1CCN(c2ccc3nc(-c4c(N)c5c(F)cccc5[nH]c4=O)[nH]c3c2)CC1` [dovitinib, 4-amino-5-fluoro-3-[6-(4-methylpiperazin-1-yl)-1H-benzimidazol-2-yl]-1H-quinolin-2-one] was tested, and the “reduction of total diameter of target lesions” value [1, 4] was 26%, the “reduction of tumor diameter on the right facial target lesion” value [1, 4] was 70% and the “reducing ACC tumor growth in a human clinical trial” value ([1]; after 1 cycle of treatment) was “surprisingly effective in reducing ACC tumor growth”. For the same compound, the “inhibiting tumor growth in primary ACC xenografts” value (primary ACC xenografts) was “effective for inhibiting tumor growth; also recorded: surprisingly effective in inhibiting tumor”, the “median growth inhibition (tumor volume)” value [2] was “significant median growth inhibition” and the survival extension ([3]; 50 mg/kg monotherapy, Logrank test, P<0.05) was “significant”. For the same compound, the “% TGD (tumor growth delay)” value ([3]; 50 mg/kg p.o. qd x64 monotherapy, study endpoint D64 or endpoint tumor volume) was 49%.
